Test results from ChEMBL document CHEMBL5537177, “Discovery of Potent Antimalarial Type II Kinase Inhibitors with Selectivity over Human Kinases” (J Med Chem, 2024).

Tested on: HepG2
Assay: Cytotoxicity against human HepG2 cells assessed as reduction in cell viability incubated for 48 hrs by MTS assay
Type: toxicity, cell-based
Conditions: hepg2
With `CCN1CCN(Cc2ccc(NC(=O)c3cncc(NC(=O)c4cncc(-c5cccs5)c4)c3)cc2C(F)(F)F)CC1` the EC50 was 2550 nM.
`CCN1CCN(Cc2ccc(NC(=O)c3cc(Cl)cc(NC(=O)c4cccc(-c5cccs5)c4)c3)cc2C(F)(F)F)CC1` showed an EC50 of 5460 nM.
In the case of `CCN1CCN(Cc2ccc(NC(=O)c3cc(NC(=O)c4cncc(-c5cccs5)c4)cc(C(F)(F)F)c3)cc2C(F)(F)F)CC1`, the EC50 is reported as 2850 nM.
`CCN1CCN(Cc2ccc(NC(=O)c3cc(F)cc(NC(=O)c4cncc(-c5cccs5)c4)c3)cc2C(F)(F)F)CC1` showed an EC50 of 6690 nM.
In the case of `O=C(Nc1ccnc(N2CCOCC2)c1)c1cc(Cl)cc(NC(=O)c2cncc(-c3cccs3)c2)c1`, the EC50 is reported as over 20000 nM.
Molecule `CCN1CCN(Cc2ccc(NC(=O)c3cc(Cl)cc(NCc4cncc(-c5cccs5)c4)c3)cc2C(F)(F)F)CC1` has an EC50 of 5590 nM.
For `CCN1CCN(Cc2ccc(NC(=O)c3ccnc(NC(=O)c4cncc(-c5cccs5)c4)c3)cc2C(F)(F)F)CC1`, the EC50 was 3030 nM.

Tested on: not listed separately
Assay: Selectivity index, ratio of EC50 for human MCF7 cells to EC50 for multidrug-resistant Plasmodium falciparum Dd2 at ring stage infected in A+ erythrocytes
Type: toxicity, cell-based
Conditions: read-out: Ratio EC50
For `CCN1CCN(Cc2ccc(NC(=O)c3cncc(NC(=O)c4cncc(-c5cccs5)c4)c3)cc2C(F)(F)F)CC1`, the selectivity ratio was 62.
With `CCN1CCN(Cc2ccc(NC(=O)c3cc(Cl)cc(NC(=O)c4cccc(-c5cccs5)c4)c3)cc2C(F)(F)F)CC1` the selectivity ratio was 33.
With `CCN1CCN(Cc2ccc(NC(=O)c3cc(NC(=O)c4cncc(-c5cccs5)c4)cc(C(F)(F)F)c3)cc2C(F)(F)F)CC1` the selectivity ratio was 114.
`CCN1CCN(Cc2ccc(NC(=O)c3cc(F)cc(NC(=O)c4cncc(-c5cccs5)c4)c3)cc2C(F)(F)F)CC1` showed a selectivity ratio of 76.
With `O=C(Nc1ccnc(N2CCOCC2)c1)c1cc(Cl)cc(NC(=O)c2cncc(-c3cccs3)c2)c1` the selectivity ratio was 20.
With `CCN1CCN(Cc2ccc(NC(=O)c3cc(Cl)cc(NCc4cncc(-c5cccs5)c4)c3)cc2C(F)(F)F)CC1` the selectivity ratio was 24.
With `CCN1CCN(Cc2ccc(NC(=O)c3ccnc(NC(=O)c4cncc(-c5cccs5)c4)c3)cc2C(F)(F)F)CC1` the selectivity ratio was 8.

Tested on: not listed separately
Assay: Metabolic stability in mouse liver microsomes assessed as half life
Type: ADME, Liver cells
Conditions: not given
Work on `CCN1CCN(Cc2ccc(NC(=O)c3cncc(NC(=O)c4cncc(-c5cccs5)c4)c3)cc2C(F)(F)F)CC1` yielded a t1/2 of 19.1 min.
With `CCN1CCN(Cc2ccc(NC(=O)c3cc(NC(=O)c4cncc(-c5cccs5)c4)cc(C(F)(F)F)c3)cc2C(F)(F)F)CC1` the t1/2 was 41.4 min.
Work on `CCN1CCN(Cc2ccc(NC(=O)c3cc(F)cc(NC(=O)c4cncc(-c5cccs5)c4)c3)cc2C(F)(F)F)CC1` yielded a t1/2 of 32.4 min.

Tested on: Plasmodium falciparum
Assay: Resistance index, ratio of EC50 for multidrug-resistant Plasmodium falciparum Dd2 at ring stage infected in A+ erythrocytes to EC50 for drug-sensitive Plasmodium falciparum 3D7 at ring stage infected in A+ erythrocytes
Type: organism-based
Conditions: human
With `CCN1CCN(Cc2ccc(NC(=O)c3cncc(NC(=O)c4cncc(-c5cccs5)c4)c3)cc2C(F)(F)F)CC1` the “Ratio EC50” value was 1.1.
With `CCN1CCN(Cc2ccc(NC(=O)c3cc(Cl)cc(NC(=O)c4cccc(-c5cccs5)c4)c3)cc2C(F)(F)F)CC1` the “Ratio EC50” value was 1.3.
For `CCN1CCN(Cc2ccc(NC(=O)c3cc(NC(=O)c4cncc(-c5cccs5)c4)cc(C(F)(F)F)c3)cc2C(F)(F)F)CC1`, the “Ratio EC50” value was 0.9.
With `CCN1CCN(Cc2ccc(NC(=O)c3cc(F)cc(NC(=O)c4cncc(-c5cccs5)c4)c3)cc2C(F)(F)F)CC1` the “Ratio EC50” value was 1.2.
With `O=C(Nc1ccnc(N2CCOCC2)c1)c1cc(Cl)cc(NC(=O)c2cncc(-c3cccs3)c2)c1` the “Ratio EC50” value was 1.1.
With `CCN1CCN(Cc2ccc(NC(=O)c3cc(Cl)cc(NCc4cncc(-c5cccs5)c4)c3)cc2C(F)(F)F)CC1` the “Ratio EC50” value was 1.1.
In the case of `CCN1CCN(Cc2ccc(NC(=O)c3ccnc(NC(=O)c4cncc(-c5cccs5)c4)c3)cc2C(F)(F)F)CC1`, the “Ratio EC50” value is reported as 1.6.

Tested on: Plasmodium falciparum
Assay: Antiplasmodial activity against drug-sensitive Plasmodium falciparum 3D7 at ring stage infected in A+ erythrocytes assessed as parasite growth reduction incubated for 72 hrs by SYBR Green I dye based analysis
Type: functional, organism-based
Conditions: 3D7, Erythrocyte
With `CCN1CCN(Cc2ccc(NC(=O)c3cncc(NC(=O)c4cncc(-c5cccs5)c4)c3)cc2C(F)(F)F)CC1` the EC50 was 70 nM.
With `CCN1CCN(Cc2ccc(NC(=O)c3cc(Cl)cc(NC(=O)c4cccc(-c5cccs5)c4)c3)cc2C(F)(F)F)CC1` the EC50 was 196 nM.
Work on `CCN1CCN(Cc2ccc(NC(=O)c3cc(NC(=O)c4cncc(-c5cccs5)c4)cc(C(F)(F)F)c3)cc2C(F)(F)F)CC1` yielded an EC50 of 35 nM.
`CCN1CCN(Cc2ccc(NC(=O)c3cc(F)cc(NC(=O)c4cncc(-c5cccs5)c4)c3)cc2C(F)(F)F)CC1` showed an EC50 of 113 nM.
With `O=C(Nc1ccnc(N2CCOCC2)c1)c1cc(Cl)cc(NC(=O)c2cncc(-c3cccs3)c2)c1` the EC50 was 700 nM.
Molecule `CCN1CCN(Cc2ccc(NC(=O)c3cc(Cl)cc(NCc4cncc(-c5cccs5)c4)c3)cc2C(F)(F)F)CC1` has an EC50 of 310 nM.
With `CCN1CCN(Cc2ccc(NC(=O)c3ccnc(NC(=O)c4cncc(-c5cccs5)c4)c3)cc2C(F)(F)F)CC1` the EC50 was 356 nM.

Tested on: MCF7
Assay: Cytotoxicity against human MCF7 cells assessed as reduction in cell viability incubated for 48 hrs by MTS assay
Type: toxicity, cell-based
Conditions: mcf7
For `CCN1CCN(Cc2ccc(NC(=O)c3cncc(NC(=O)c4cncc(-c5cccs5)c4)c3)cc2C(F)(F)F)CC1`, the EC50 was 4710 nM.
`CCN1CCN(Cc2ccc(NC(=O)c3cc(Cl)cc(NC(=O)c4cccc(-c5cccs5)c4)c3)cc2C(F)(F)F)CC1` gave an EC50 of 8360 nM.
Work on `CCN1CCN(Cc2ccc(NC(=O)c3cc(NC(=O)c4cncc(-c5cccs5)c4)cc(C(F)(F)F)c3)cc2C(F)(F)F)CC1` yielded an EC50 of 3540 nM.
Molecule `CCN1CCN(Cc2ccc(NC(=O)c3cc(F)cc(NC(=O)c4cncc(-c5cccs5)c4)c3)cc2C(F)(F)F)CC1` has an EC50 of 10200 nM.
Work on `O=C(Nc1ccnc(N2CCOCC2)c1)c1cc(Cl)cc(NC(=O)c2cncc(-c3cccs3)c2)c1` yielded an EC50 of 14700 nM.
Molecule `CCN1CCN(Cc2ccc(NC(=O)c3cc(Cl)cc(NCc4cncc(-c5cccs5)c4)c3)cc2C(F)(F)F)CC1` has an EC50 of 8330 nM.
For `CCN1CCN(Cc2ccc(NC(=O)c3ccnc(NC(=O)c4cncc(-c5cccs5)c4)c3)cc2C(F)(F)F)CC1`, the EC50 was 4610 nM.

Tested on: not listed separately
Assay: Metabolic stability in mouse liver microsomes assessed as intrinsic clearance
Type: ADME, Liver cells
Conditions: not given
With `CCN1CCN(Cc2ccc(NC(=O)c3cncc(NC(=O)c4cncc(-c5cccs5)c4)c3)cc2C(F)(F)F)CC1` the intrinsic clearance was 36 µL/min/mg.
Molecule `CCN1CCN(Cc2ccc(NC(=O)c3cc(NC(=O)c4cncc(-c5cccs5)c4)cc(C(F)(F)F)c3)cc2C(F)(F)F)CC1` has an intrinsic clearance of 17 µL/min/mg.
`CCN1CCN(Cc2ccc(NC(=O)c3cc(F)cc(NC(=O)c4cncc(-c5cccs5)c4)c3)cc2C(F)(F)F)CC1` gave an intrinsic clearance of 21 µL/min/mg.

Tested on: not listed separately
Assay: Selectivity index, ratio of EC50 for human HepG2 cells to EC50 for multidrug-resistant Plasmodium falciparum Dd2 at ring stage infected in A+ erythrocytes
Type: toxicity, cell-based
Conditions: read-out: Ratio EC50
Work on `CCN1CCN(Cc2ccc(NC(=O)c3cncc(NC(=O)c4cncc(-c5cccs5)c4)c3)cc2C(F)(F)F)CC1` yielded a selectivity ratio of 34.
Molecule `CCN1CCN(Cc2ccc(NC(=O)c3cc(Cl)cc(NC(=O)c4cccc(-c5cccs5)c4)c3)cc2C(F)(F)F)CC1` has a selectivity ratio of 22.
Work on `CCN1CCN(Cc2ccc(NC(=O)c3cc(NC(=O)c4cncc(-c5cccs5)c4)cc(C(F)(F)F)c3)cc2C(F)(F)F)CC1` yielded a selectivity ratio of 92.
`CCN1CCN(Cc2ccc(NC(=O)c3cc(F)cc(NC(=O)c4cncc(-c5cccs5)c4)c3)cc2C(F)(F)F)CC1` gave a selectivity ratio of 50.
`O=C(Nc1ccnc(N2CCOCC2)c1)c1cc(Cl)cc(NC(=O)c2cncc(-c3cccs3)c2)c1` gave a selectivity ratio of over 27.
Work on `CCN1CCN(Cc2ccc(NC(=O)c3cc(Cl)cc(NCc4cncc(-c5cccs5)c4)c3)cc2C(F)(F)F)CC1` yielded a selectivity ratio of 16.
Work on `CCN1CCN(Cc2ccc(NC(=O)c3ccnc(NC(=O)c4cncc(-c5cccs5)c4)c3)cc2C(F)(F)F)CC1` yielded a selectivity ratio of 5.2.

Tested on: Plasmodium falciparum
Assay: Antiplasmodial activity against multidrug-resistant Plasmodium falciparum Dd2 at ring stage infected in A+ erythrocytes assessed as parasite growth reduction incubated for 72 hrs by SYBR Green I dye based analysis
Type: functional, organism-based
Conditions: Dd2, Erythrocyte
For `CCN1CCN(Cc2ccc(NC(=O)c3cncc(NC(=O)c4cncc(-c5cccs5)c4)c3)cc2C(F)(F)F)CC1`, the EC50 was 76 nM.
With `CCN1CCN(Cc2ccc(NC(=O)c3cc(Cl)cc(NC(=O)c4cccc(-c5cccs5)c4)c3)cc2C(F)(F)F)CC1` the EC50 was 253 nM.
Work on `CCN1CCN(Cc2ccc(NC(=O)c3cc(NC(=O)c4cncc(-c5cccs5)c4)cc(C(F)(F)F)c3)cc2C(F)(F)F)CC1` yielded an EC50 of 31 nM.
`CCN1CCN(Cc2ccc(NC(=O)c3cc(F)cc(NC(=O)c4cncc(-c5cccs5)c4)c3)cc2C(F)(F)F)CC1` showed an EC50 of 135 nM.
For `O=C(Nc1ccnc(N2CCOCC2)c1)c1cc(Cl)cc(NC(=O)c2cncc(-c3cccs3)c2)c1`, the EC50 was 739 nM.
With `CCN1CCN(Cc2ccc(NC(=O)c3cc(Cl)cc(NCc4cncc(-c5cccs5)c4)c3)cc2C(F)(F)F)CC1` the EC50 was 344 nM.
Work on `CCN1CCN(Cc2ccc(NC(=O)c3ccnc(NC(=O)c4cncc(-c5cccs5)c4)c3)cc2C(F)(F)F)CC1` yielded an EC50 of 579 nM.
